According to PMC9400670, “Establishing the selective phospholipid membrane coordination, permeation and lysis properties for a series of ‘druggable’ supramolecular self-associating antimicrobial amphiphiles” (Chemical Science, 2022):
One block for each compound: values may come before it.

What was measured:
[1] = Critical micelle concentration from surface tension measurements (pendant drop); assay type: physicochemical; settings: 19 : 1 H2O : EtOH solution at 298 K
From the text: Section 2: General Methods
General remarks: A positive pressure of nitrogen and oven dried glassware were used for all reactions.
All solvents and starting materials were purchased from known chemical suppliers or available stores and used without any further purification unless specifically stipulated. The NMR spectra were obtained using a Burker AV2 400 MHz, AVNEO 400 MHz or Avance III […] spectrometer. The data was processed using ACD Labs or MestreNova software. NMR Chemical shift values are reported in parts per million (ppm) and calibrated to the centre of the residual solvent peak set (s = singlet, br = broad, d = doublet, t = triplet, q = quartet, m = multiplet). Fluorescence and fluorescence polarisation measurements were conducted using a Clariostar plate reader and analysed using MARS data analysis […]
Tensiometry Studies: All the samples were prepared in an EtOH:H2O (1:19) solution. All samples underwent an annealing process in which the various solutions were heated to approximately 40 °C before being allowed to cool to room temperature, allowing each sample to reach a thermodynamic minimum. All samples were prepared through serial dilution of the most concentrated sample. Three surface tension measurements were obtained for each sample at a given concentration, using the […]
pendant drop method. […]
Data

[2] = tested on: calcein loaded phospholipid vesicles (PC, PG, PE-PG mix, E. coli total, E. coli polar); test: Synthetic phospholipid vesicle lysis (calcein leakage) assay; settings: SSA 1.5 mM, in words; for time dependence of vesicle lysis: 15 min vs 30 s, E. coli-based vesicles
Protocol: Here, samples of phospholipid vesicles containing the fluorescent dye calcein were prepared. At internal vesicle concentrations, this dye undergoes self-quenching. […] The increase in fluorescence output is proportional to the % of vesicle lysis observed upon the addition of SSAs 1–14, when calibrated against a solution of vesicles know to have undergone 100% lysis, see Fig. 5.
Fig. 5 The average (n = 3) percentage lysis (%) of vesicles (30 μM) composed of five different lipid compositions (Table 2), with an internal calcein concentration of 70 mM at 298 K. The % vesicle lysis was calculated through observation of increasing fluorescence emission (λem = 515 nm), following the addition of SSAs […] (1.5 mM) in a H2O/EtOH 95 : 5 solution after: (a) 30 s and; (b) 15 min. Triton X-100 (1%) was used as a positive control for 100% vesicle lysis. Data normalised to the addition of a H2O/EtOH 95 : 5 solution. Red = PC, yellow = PG, green = PE-PG mix, blue = E. coli total, pink = E. coli polar. Error = standard error.
Section 2: General Methods […]
Preparation of vesicles: All lipids were purchased as powder stocks from Avanti Polar Lipids. Lipid vesicles were prepared according to standard procedures.1 Each phospholipid was dissolved in chloroform (~ 10 mL) and the solvent was removed under reduced pressure. The thin film of dried lipid was further dried in vacuo for at least 2 hours. Lipid films were resuspended in the desired buffer and subjected to 9 freeze-thaw cycles in liquid nitrogen and extruded 20 times through a 200 nm […]
Preparation of calcein loaded vesicles: Lipid films were resuspended in buffer A (70 mM calcein, 10 mM TRIS pH 8.5, 0.5 mM EDTA, 110 mM NaCl, pH adjusted to 6-7) and subjected to 9 freeze-thaw cycles in liquid nitrogen and extruded 20 times through a 200 nm polycarbonate membrane. The suspension was run down a size exclusion column packed with sephadex G-50 using buffer B (10 mM TRIS pH 8.5, 0.5 mM EDTA, 110 mM NaCl). The hydrodynamic dimeter of the lipids was monitored using an Anton Paar LitesizerTM 500 to ensure the separation of free and entrapped calcein.
Phospholipid concentration was adjusted to 30 µM for vesicle leakage experiments.
Vesicle leakage assay: Black bottom 96-well plates were prepared with the appropriate lipid solution (100 µL, 30 µM) and desired SSA solution (100 µL) prepared in H2O/EtOH 95: 5. A solution of 1 % Triton X-100 (16) was used for a 100 % lysis control and a H2O/EtOH 95: 5 solution was used as a 0 % lysis control. Fluorescent measurements were taken at 25 °C using an excitation value of 495 nm and an optimised gain of 983. Data were acquired in endpoint mode. All experiments were repeated in triplicate to ensure experimental reproducibility. […]
Data

[3] = tested on: calcein loaded phospholipid vesicles (PC, PG, PE-PG mix, E. coli total, E. coli polar); test: as above; settings: SSA titration; concentrations ≤0.5 mM; after 15 min; in words

CMC ([1]; unit given in Figs S37-S40, not in Table 3): 4.6 mM
SMILES: Cc1ccc2nc(-c3ccc(NC(=S)NCS(=O)(=O)O)cc3)sc2c1 [SSA 12]

CMC ([1]; unit printed in Figs S37-S40, not in Table 3, listed as 9): 1.9 mM
CMC ([1]; unit printed in Figs S37-S40, not in Table 3, listed as compound 9): 1.92 mM
SMILES: Cc1ccc2nc(-c3ccc(NC(=O)NCCC(=O)O)cc3)sc2c1 [SSA 9]
time dependence of vesicle lysis [2]: time dependent enhancement of vesicle lysis

SMILES: O=C(NCS(=O)(=O)O)Nc1ccccc1-c1nc2ccccc2s1 [SSA 5]
vesicle lysis PG over PC [3]: enhanced levels of vesicle lysis against PG

SMILES: Cc1ccc2nc(-c3ccc(NC(=O)NCS(=O)(=O)O)cc3)sc2c1 [SSA 6]
time dependence of vesicle lysis [2]: time dependent enhancement of vesicle lysis
vesicle lysis PG over PC [3]: enhanced levels of vesicle lysis against PG

CMC ([1]; unit printed in Figs S37-S40, not in Table 3, listed as 10): 14.8 mM
CMC ([1]; unit printed in Figs S37-S40, not in Table 3, listed as compound 10): 14.77 mM
SMILES: Cc1ccc2nc(-c3ccc(NC(=O)NCCCS(=O)(=O)O)cc3)sc2c1 [SSA 10]
time dependence of vesicle lysis [2]: time dependent enhancement of vesicle lysis

CMC ([1]; unit printed in Figs S37-S40, not in Table 3, listed as 11): 3.0 mM
CMC ([1]; unit printed in Figs S37-S40, not in Table 3, listed as compound 11): 3.03 mM
SMILES: Cc1ccc2nc(-c3ccc(NC(=O)NCC(=O)O)cc3)sc2c1 [SSA 11]
vesicle lysis activity ([2]; thirty seconds after SSA addition, five vesicle types): general surfactant type properties, similar to that of Triton

CMC ([1]; unit printed in Figs S37-S40, not in Table 3, listed as 8): 5.2 mM
CMC ([1]; unit printed in Figs S37-S40, not in Table 3, listed as compound 8): 5.16 mM
SMILES: O=C(NCS(=O)(=O)O)Nc1ccc(-c2nc3ccccc3s2)cc1 [SSA 8]
time dependence of vesicle lysis [2]: time dependent enhancement of vesicle lysis
vesicle lysis PG over PC [3]: enhanced levels of vesicle lysis against PG
